Measured values published in publication PMC11790956, “A microscale thermophoresis-based enzymatic RNA methyltransferase assay enables the discovery of DNMT2 inhibitors” (Communications Chemistry, 2025).
Entries after “also recorded” stand apart in the source; their conditions may differ.

Tests used:
METTL3/14 = target: T1, METTL3/14 (Homo sapiens, UniProt Q86U44); assay: METTL3/14 enzymatic split aptamer MST assay; assay type: biochemical; conditions: 500 µM of hit compound, Fig. 5D
T1 construct: purchased BPS Bioscience BPS-100105
Experimental: Specifically, we studied the m^6A MTase METTL3/14 and the m^7G MTase S. aureus TrmD.
For MTase assay detection by MST, enzyme reaction mixtures with a total volume of 10 µL per single treatment condition were prepared and incubated for the desired reaction times. Inhibitors were added from corresponding DMSO stocks to a final DMSO concentration of max. […] Afterward, reactions were quenched at a given reaction time by the addition of 1 µL sodium dodecyl sulfate (SDS, solution, 3% in water) per 10 µL reaction mixture and mixed well by pipetting. […]
MST experiments were carried out in at least technical triplicates using a Monolith NT.115 instrument (NanoTemper Technologies) using Monolith standard capillaries and the blue excitation laser setup. […] General settings were applied for all MST experiments as follows: manual temperature control: 25 °C, fluorescence measurement before MST: 4 s, MST (IR laser) on: 20 s, fluorescence after MST: 2 s, delay: 25 s. The laser power was adjusted to optimize the signal-to-noise ratio and the fluorescence signal. LED and MST power settings were chosen individually for each sample by adjusting the LED power to yield fluorescence signals of at least 300 units (blue laser) or 3000 units (red laser) and the MST power to achieve an appropriate thermophoretic response (standard setting: medium MST power). […]

DNMT2 = target: T2, DNMT2 (Homo sapiens, UniProt O14717); assay: DNMT2 fluorescence polarization (FP) FTAD displacement assay; assay type: binding
T2 construct: made in house
T2 sequence (O14717 1-391): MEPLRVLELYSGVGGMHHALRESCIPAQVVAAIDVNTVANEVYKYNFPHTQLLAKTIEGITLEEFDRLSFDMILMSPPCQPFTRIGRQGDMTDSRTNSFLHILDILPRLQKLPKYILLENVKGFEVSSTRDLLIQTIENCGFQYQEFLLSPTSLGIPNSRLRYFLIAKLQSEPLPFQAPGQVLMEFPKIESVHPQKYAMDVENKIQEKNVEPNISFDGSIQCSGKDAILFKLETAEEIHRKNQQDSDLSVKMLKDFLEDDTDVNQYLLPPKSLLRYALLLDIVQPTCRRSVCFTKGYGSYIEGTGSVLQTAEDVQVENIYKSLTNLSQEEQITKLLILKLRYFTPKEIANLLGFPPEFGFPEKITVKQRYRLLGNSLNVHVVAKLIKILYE
Experimental: Fluorescence polarization assays were conducted with a similar sample composition as described for FTAD-MST assays as described previously. Triplicates (50 µL) were prepared in black 96-well half-area plates (Greiner) and measured using a Spark 10 M plate reader (Tecan) equipped with polarization filters coupled to a monochromator setup (FTAD: λex = 480 nm, λem = 530 nm). Polarization values (in mP) were calculated from polarization-specific parallel and orthogonal fluorescence intensities according to the Tecan in-built calculation routine.
Reversibility of alexidine binding to DNMT2 was evaluated with a modified FP-assay setup. Briefly, reaction mixtures containing alexidine were prepared in black 96-well half-area plates, and after FP measurement, the volume of one well (50 µL) was collected and applied to a Zeba™ Spin Desalting Column (7 K MWCO) while 5 µL of a 10x DNMT2 buffer solution (500 mM HEPES, 1.5 M NaCl, 10 mM dithiothreitol (DTT), 1% PEG-8000, 0.5% polysorbate-20, pH 7.4) was placed in the collection tube attached to the SEC column. This procedure separated alexidine and restored the initial composition of the DNMT2 assay solution.
Kinetic FP assays were performed to assess the time-dependent inactivation of DNMT2 treated with covalent inhibitors. Briefly, samples contained 2 µM DNMT2, 100 nM FTAD probe, and 1.3% DMSO in DNMT2 MST buffer. Inhibitors were added from DMSO stocks. Negative inhibition control was performed by mock treatment with DMSO. Reactions were initiated by the addition of the Cpd 11 (adamantanyl-acryloylurea) and monitored for 120 min at 25 °C in a Tecan Spark 10 M plate reader (FTAD: λex = 480 nm, λem = 530 nm) The irreversible inhibition kinetics were analyzed as described previously[35],[36].

T1 sequence (Q86U44 2-580 limits assumed): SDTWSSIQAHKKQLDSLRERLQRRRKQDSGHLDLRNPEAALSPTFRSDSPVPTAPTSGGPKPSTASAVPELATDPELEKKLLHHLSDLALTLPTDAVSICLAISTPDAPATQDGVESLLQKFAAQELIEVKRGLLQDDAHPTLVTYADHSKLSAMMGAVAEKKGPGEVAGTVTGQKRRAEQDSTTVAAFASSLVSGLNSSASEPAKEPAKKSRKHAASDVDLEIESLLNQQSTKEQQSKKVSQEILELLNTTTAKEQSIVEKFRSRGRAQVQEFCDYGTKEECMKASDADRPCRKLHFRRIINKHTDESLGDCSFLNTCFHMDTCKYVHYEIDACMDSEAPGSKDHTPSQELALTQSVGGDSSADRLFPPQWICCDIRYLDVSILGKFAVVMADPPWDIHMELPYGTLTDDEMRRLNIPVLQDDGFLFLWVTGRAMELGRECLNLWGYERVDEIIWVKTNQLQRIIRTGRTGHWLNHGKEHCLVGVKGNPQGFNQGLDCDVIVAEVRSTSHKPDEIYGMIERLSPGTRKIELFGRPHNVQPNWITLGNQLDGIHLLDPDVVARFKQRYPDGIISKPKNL
T1 sequence (Q9HCE5 2-456 partner limits assumed): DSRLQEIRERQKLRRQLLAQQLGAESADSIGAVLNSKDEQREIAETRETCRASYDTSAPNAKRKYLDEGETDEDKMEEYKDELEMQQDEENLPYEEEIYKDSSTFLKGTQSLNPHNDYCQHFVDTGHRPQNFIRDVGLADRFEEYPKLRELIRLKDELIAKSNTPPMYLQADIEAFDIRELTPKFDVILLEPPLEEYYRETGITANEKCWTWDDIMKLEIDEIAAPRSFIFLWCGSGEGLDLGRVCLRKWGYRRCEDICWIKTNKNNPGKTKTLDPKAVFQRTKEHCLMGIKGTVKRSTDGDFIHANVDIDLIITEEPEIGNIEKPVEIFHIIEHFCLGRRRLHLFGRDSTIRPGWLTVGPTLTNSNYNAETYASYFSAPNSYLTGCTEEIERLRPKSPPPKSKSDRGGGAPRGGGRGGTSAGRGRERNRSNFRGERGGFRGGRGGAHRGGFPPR

C=CC(=O)NC(=O)NC12CC3CC(CC(C3)C1)C2 [Cpd 11, 1-(adamantan-1-yl)-3-(prop-2-enoyl)urea]
inhibition of METTL3/14 (selectivity panel) (METTL3/14): did not inhibit | displacement of FTAD tracer / binding to SAH-binding site (DNMT2; FP library screening with FTAD tracer): binding to the SAH-binding site; also recorded: displaced the FP-probe FTAD effectively | time dependence of FTAD displacement (DNMT2; kinetic FP assay): time-dependent DNMT2 inhibition; also recorded: time-dependent displacement of the FTAD FP-tracer | kinact (DNMT2; kinetic FP assay, kobs vs. [I], 120 min at 25 °C): 0.00285 s⁻¹
